Patent US20190315711A1 (eXIthera Pharmaceuticals, Inc., priority 2016, published 2019)

Legend:
Trypsin = biological target: T1, Trypsin (Bos taurus, UniProt P00760); test: Dose response assay for protease inhibitors: trypsin; assay type: biochemical; details: ratio versus Factor XIa
T1 construct: gene PRSS1
T1 sequence (P00760 24-246): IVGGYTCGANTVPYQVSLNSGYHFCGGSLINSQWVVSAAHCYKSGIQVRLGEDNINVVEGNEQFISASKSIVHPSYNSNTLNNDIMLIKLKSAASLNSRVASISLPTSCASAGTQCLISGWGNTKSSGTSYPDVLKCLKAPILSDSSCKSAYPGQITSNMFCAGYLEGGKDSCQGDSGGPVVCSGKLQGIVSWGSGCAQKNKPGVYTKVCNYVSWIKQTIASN

Factor Xa = biological target: T2, Factor Xa (Homo sapiens, UniProt P00742); test: Dose response assay for protease inhibitors: Factor Xa; assay type: biochemical; details: ratio versus Factor XIa
T2 construct: Factor Xa; 0.2 μM in 50% glycerol (9.2 μg/mL)
T2 sequence (P00742 235-488 limits assumed): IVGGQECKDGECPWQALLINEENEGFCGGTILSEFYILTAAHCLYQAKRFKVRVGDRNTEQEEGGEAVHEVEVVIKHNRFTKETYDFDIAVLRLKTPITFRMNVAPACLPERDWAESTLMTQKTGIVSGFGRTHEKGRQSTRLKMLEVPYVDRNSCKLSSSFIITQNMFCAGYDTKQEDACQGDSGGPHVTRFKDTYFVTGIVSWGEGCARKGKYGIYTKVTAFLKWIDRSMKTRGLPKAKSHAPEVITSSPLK
T2 sequence (P00742 41-179 partner limits assumed): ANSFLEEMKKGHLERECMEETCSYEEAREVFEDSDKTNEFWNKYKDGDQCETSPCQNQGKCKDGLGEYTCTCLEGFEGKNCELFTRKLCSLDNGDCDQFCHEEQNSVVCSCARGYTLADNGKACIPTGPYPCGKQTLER

[1] = Caco-2 cell permeability assay (A-B and B-A); assay type: in vitro ADME; details: human; for Papp A→B at 60 min, 10 μM: A-B direction; for Papp B→A at 40 min, 10 μM: B-A direction
Procedure, shortened: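 Caco-2 monolayers were used 21-25 days post-seeding, with compound at 10 μM (1% DMSO) in HBSS-MES pH 6.5 or HBSS-HEPES pH 7.4 on the donor side. Incubation was at 37° C with shaking for 60 min (A−B) or 40 min (B−A). Donor and receiver samples were quantified by HPLC-MS/MS, and Papp and recovery were calculated.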

human Factor XIa = human Factor XIa (Homo sapiens, UniProt P03951); test: Factor XIa enzyme inhibition assay (dose response, fluorogenic AMC substrate); assay type: biochemical; parameters: Enzyme: Factor XIa; details: purified enzyme; substrate 50 μM, enzyme 0.25 nM; read-out: hFXIa IC50
Sequence of human Factor XIa (P03951 388-625 limits assumed): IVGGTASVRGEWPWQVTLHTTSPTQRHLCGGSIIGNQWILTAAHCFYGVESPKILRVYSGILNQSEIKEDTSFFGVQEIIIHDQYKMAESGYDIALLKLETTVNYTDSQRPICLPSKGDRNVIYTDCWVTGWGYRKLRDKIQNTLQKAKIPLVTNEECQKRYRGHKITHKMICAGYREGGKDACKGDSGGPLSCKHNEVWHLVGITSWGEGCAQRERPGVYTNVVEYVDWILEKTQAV
Sequence of human Factor XIa (P03951 19-387 partner limits assumed): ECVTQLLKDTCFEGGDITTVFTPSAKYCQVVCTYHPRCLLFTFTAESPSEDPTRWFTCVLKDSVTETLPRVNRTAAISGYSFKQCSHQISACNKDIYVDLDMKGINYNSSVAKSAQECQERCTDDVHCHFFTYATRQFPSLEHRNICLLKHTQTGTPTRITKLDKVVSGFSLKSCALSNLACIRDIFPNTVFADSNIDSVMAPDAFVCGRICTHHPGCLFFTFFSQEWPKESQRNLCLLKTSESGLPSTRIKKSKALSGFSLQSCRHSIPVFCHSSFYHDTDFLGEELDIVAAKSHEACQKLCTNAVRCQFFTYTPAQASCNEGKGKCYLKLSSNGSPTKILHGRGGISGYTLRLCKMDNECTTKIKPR
Procedure, shortened: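 Fluorogenic assay in 20 mM Hepes pH 7.4, 150 mM NaCl, 0.02% Tween 20 with 0.25 nM enzyme and 50 μM Glp-Pro-Arg-AMC (final). Fluorescence read every minute for 30 min at 30 °C after serial two-fold compound dilution; IC50 from four-parameter Hill fit of dose-response curves.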

| Compound | Ratio: Trypsin/FXIa (Trypsin) | FXa/FXIa (selectivity ratio) (Factor Xa) | Papp A→B at 60 min, 10 μM [1] | Papp B→A at 40 min, 10 μM [1] | IC50 (human Factor XIa) |
| --- | --- | --- | --- | --- | --- |
| CC[C@@H](NC(=O)N1C(=O)[C@H](Cc2ccnc(N)c2)[C@H]1C(=O)N(C)c1ncccn1)c1cccnc1 [Compound 61] | G (“G” indicates 1-100) | H (“H” indicates 101-1000) | ≤ 10 ×10⁻⁶ cm/s | 11 to 30 ×10⁻⁶ cm/s | < 10 nM |
| CC[C@@H](NC(=O)N1C(=O)[C@H](Cc2ccnc(NC)c2)[C@H]1C(=O)N(C)c1ncccn1)C1CCCCC1 [Compound 80] | G (“G” indicates 1-100) | I (“I” indicates >500) | 11 to 30 ×10⁻⁶ cm/s | ≤ 10 ×10⁻⁶ cm/s | < 10 nM |
| CC[C@@H](NC(=O)N1C(=O)[C@H](Cc2ccnc(N)c2)[C@H]1C(=O)N(C)c1ncncn1)C1CCCCC1 [Compound 81] | H (“H” indicates 101-1000) | I (“I” indicates >500) | 11 to 30 ×10⁻⁶ cm/s | 11 to 30 ×10⁻⁶ cm/s | < 10 nM |
| CN(C(=O)[C@@H]1[C@@H](Cc2ccnc(N)c2)C(=O)N1C(=O)NC(c1ccccc1)c1ccccc1)c1ccncc1 [Compound 82] | G (“G” indicates 1-100) | I (“I” indicates >500) | ≤ 10 ×10⁻⁶ cm/s | 31 to 50 ×10⁻⁶ cm/s | < 10 nM |
| CC[C@@H](NC(=O)N1C(=O)[C@H](Cc2ccnc(N)c2)[C@H]1C(=O)N(C)c1ncncn1)c1ccccc1 [Compound 83] | H (“H” indicates 101-1000) | I (“I” indicates >500) | ≤ 10 ×10⁻⁶ cm/s | > 50 ×10⁻⁶ cm/s | < 10 nM |
| CC[C@@H](NC(=O)N1C(=O)[C@H](Cc2ccnc(N)c2)[C@H]1C(=O)N(C)c1ncccn1)c1ccccc1 [Compound 84] | G (“G” indicates 1-100) | I (“I” indicates >500) | ≤ 10 ×10⁻⁶ cm/s | 31 to 50 ×10⁻⁶ cm/s | < 10 nM |
| CCC[C@@H](NC(=O)N1C(=O)[C@H](Cc2ccnc(N)c2)[C@H]1C(=O)N(C)c1ccncc1)c1ccccc1 [Compound 86] | G (“G” indicates 1-100) | I (“I” indicates >500) | ≤ 10 ×10⁻⁶ cm/s | 31 to 50 ×10⁻⁶ cm/s | < 10 nM |
| CC[C@@H](NC(=O)N1C(=O)[C@H](Cc2cc(C)nc(N)c2)[C@H]1C(=O)N(C)c1ccccc1)C1CCCCC1 [Compound 91] | G (“G” indicates 1-100) | I (“I” indicates >500) | 11 to 30 ×10⁻⁶ cm/s | ≤ 10 ×10⁻⁶ cm/s | < 10 nM |
| CC[C@@H](NC(=O)N1C(=O)[C@H](Cc2ccnc(N)c2)[C@H]1C(=O)N(C)c1ccncc1)c1ccccc1Cl [Compound 95] | G (“G” indicates 1-100) | I (“I” indicates >500) | ≤ 10 ×10⁻⁶ cm/s | 31 to 50 ×10⁻⁶ cm/s | < 10 nM |
| CC[C@H](NC(=O)N1C(=O)[C@H](Cc2ccnc(N)c2)[C@H]1C(=O)N(C)c1ccncc1)c1ccccc1C [Compound 97] | G (“G” indicates 1-100) | I (“I” indicates >500) | ≤ 10 ×10⁻⁶ cm/s | 31 to 50 ×10⁻⁶ cm/s | < 10 nM |
| CC[C@@H](NC(=O)N1C(=O)[C@H](Cc2cc(C)nc(N)c2)[C@H]1C(=O)N(C)c1ccccc1)c1cccc(Cl)c1 [Compound 120] | G (“G” indicates 1-100) | I (“I” indicates >500) | 11 to 30 ×10⁻⁶ cm/s | ≤ 10 ×10⁻⁶ cm/s | < 10 nM |
| CC[C@@H](NC(=O)N1C(=O)[C@H](Cc2ccnc(N)c2)[C@H]1C(=O)N(C)c1ncccn1)c1cccc(Cl)c1 [Compound 121] | G (“G” indicates 1-100) | I (“I” indicates >500) | 11 to 30 ×10⁻⁶ cm/s | 11 to 30 ×10⁻⁶ cm/s | < 10 nM |

Now from value to compound:

| Ratio: Trypsin/FXIa (Trypsin) | FXa/FXIa (selectivity ratio) (Factor Xa) | Papp A→B at 60 min, 10 μM [1] | Papp B→A at 40 min, 10 μM [1] | IC50 (human Factor XIa) | Compound |
| --- | --- | --- | --- | --- | --- |
| G (“G” indicates 1-100) | I (“I” indicates >500) | ≤ 10 ×10⁻⁶ cm/s | ≤ 10 ×10⁻⁶ cm/s | < 10 nM | CC[C@@H](NC(=O)N1C(=O)[C@H](Cc2ccnc(N)c2)[C@H]1C(=O)N(C)c1ccncc1)c1cccnc1 [Compound 59] |
| G (“G” indicates 1-100) | I (“I” indicates >500) | ≤ 10 ×10⁻⁶ cm/s | 31 to 50 ×10⁻⁶ cm/s | < 10 nM | CC[C@@H](NC(=O)N1C(=O)[C@H](Cc2ccnc(N)c2)[C@H]1C(=O)N(C)c1ccncc1)c1cccc(C)c1 [Compound 87] |
| G (“G” indicates 1-100) | H (“H” indicates 101-1000) | ≤ 10 ×10⁻⁶ cm/s | 31 to 50 ×10⁻⁶ cm/s | < 10 nM | CC[C@@H](NC(=O)N1C(=O)[C@H](Cc2ccnc(N)c2)[C@H]1C(=O)N(C)c1ccncc1)c1ccc(Cl)cc1 [Compound 89] |
| G (“G” indicates 1-100) | I (“I” indicates >500) | ≤ 10 ×10⁻⁶ cm/s | 11 to 30 ×10⁻⁶ cm/s | < 10 nM | CC[C@@H](NC(=O)N1C(=O)[C@H](Cc2ccnc(N)c2)[C@H]1C(=O)N(C)c1ccncc1)c1cccc(Cl)c1 [Compound 90] |
| G (“G” indicates 1-100) | I (“I” indicates >500) | ≤ 10 ×10⁻⁶ cm/s | 11 to 30 ×10⁻⁶ cm/s | < 10 nM | CC[C@@H](NC(=O)N1C(=O)[C@H](Cc2ccnc(N)c2)[C@H]1C(=O)N(C)c1ccncc1)c1cccc(C#N)c1 [Compound 99] |
| G (“G” indicates 1-100) | H (“H” indicates 101-1000) | ≤ 10 ×10⁻⁶ cm/s | 31 to 50 ×10⁻⁶ cm/s | < 10 nM | CC[C@@H](NC(=O)N1C(=O)[C@H](Cc2ccnc(N)c2)[C@H]1C(=O)N(C)c1ccncc1)c1cccc(OC)c1 [Compound 100] |
| H (“H” indicates 101-1000) | H (“H” indicates 101-1000) | 11 to 30 ×10⁻⁶ cm/s | ≤ 10 ×10⁻⁶ cm/s | 10 to 100 nM | CC[C@@H](NC(=O)N1C(=O)[C@H](Cc2ccnc(NC(=O)OC(C)(C)C)c2)[C@H]1C(=O)N(C)c1ccncc1)c1cccc(Cl)c1 [Compound 127] |
